Measured values reported in US20070293484A1, “Thiophene Heteroaryl Amines” (SUGEN, INC., priority 2004, published 2007).
Where “and” joins values, the source holds several entries; their conditions need not be identical. Equal values may be shown once.

Columns and labels:
[1] = target: T1, GST-Flk1 (Mus musculus, UniProt P35918); assay: GST-FLK-1 bioassay (ELISA, tyrosine kinase activity on poly(glu,tyr)); type: biochemical
T1 construct: GST-Flk1cd purified from sf9 recombinant baculovirus transformation (SUGEN, Inc.); host or cells: Sf9 insect cells (recombinant baculovirus)
Procedure: The assays described herein are performed in an ELISA (Enzyme-Linked Immunosorbent Sandwich Assay) format (Voller, et al., 1980, “Enzyme-Linked Immunosorbent Assay,” Manual of Clinical Immunology, 2d ed., Rose and Friedman, Am. Soc. Of Microbiology, Washington, D.C., pp. 359-371). The general procedure is as follows: a compound is introduced to cells expressing the test kinase, either naturally or recombinantly, for a selected period of time after which, if the test kinase is a receptor, a ligand known to activate the receptor is added. The cells are lysed and the lysate is transferred to the wells of an ELISA plate previously coated with a specific antibody recognizing the substrate of the enzymatic phosphorylation reaction. Non-substrate components of the cell lysate are washed away and the amount of phosphorylation on the substrate is detected with an antibody specifically recognizing phosphotyrosine compared with control cells that were not contacted with a test compound.
This assay analyzes the tyrosine kinase activity of GST-Flk1 on poly(glu,tyr) peptides.
• 1. Corning 96-well ELISA plates (Corning Catalog No. 5805-96). • 2. poly(glu,tyr) 4:1, lyophilizate (Sigma Catalog #P0275). • 3. Preparation of poly(glu,tyr)(pEY) coated assay plates: Coat 2 ug/well of poly(glu,tyr)(pEY) in 100 μL PBS, hold at room temperature for 2 hours or at 4° C. overnight. Cover plates well to prevent evaporation. • 4. PBS Buffer: for 1 L, mix 0.2 g KH2PO4, 1.15 g Na2HPO4, 0.2 g KCl and 8 g NaCl in approx. 900 ml dH2O. When all reagents have dissolved, adjust the pH to 7.2 with HCl. Bring total volume to 1 L with dH2O. • 5. PBST Buffer: to 1 L of PBS Buffer, add 1.0 ml Tween-20. • 6. TBB—Blocking Buffer: for 1 L, mix 1.21 g TRIS, 8.77 g NaCl, 1 ml TWEEN-20 in approximately 900 ml dH2O. Adjust pH to 7.2 with HCl. Add 10 g BSA, stir to dissolve. Bring total volume to 1 L with dH2O. Filter to remove particulate matter. • 7. 1% BSA in PBS: To make a 1× working solution, add 10 g BSA to approx. 990 ml PBS buffer, stir to dissolve. Adjust total volume to 1 L with PBS buffer, filter to remove particulate matter. • 8. 50 mM Hepes pH 7.5. • 9. GST-Flk1cd purified from sf9 recombinant baculovirus transformation (SUGEN, Inc.). • 10. 4% DMSO in dH2O. • 11. 10 mMATP in dH2O. • 12. 40 mM MnCl2 • 13. Kinase Dilution Buffer (KDB): mix 10 ml Hepes (pH 7.5), 1 ml 5M NaCl, 40 μL 100 mM sodium orthovanadate and 0.4 ml of 5% BSA in dH2O with 88.56 ml dH2O. • 14. NUNC 96-well V bottom polypropylene plates, Applied Scientific Catalog #AS-72092 • 15. EDTA: mix 14.12 g ethylenediaminetetraacetic acid (EDTA) to approx. 70 ml dH2O. Add 10 N NaOH until EDTA dissolves. Adjust pH to 8.0. Adjust total volume to 100 ml with dH2O. • 16. 1^0 Antibody Dilution Buffer: mix 10 ml of 5% BSA in PBS buffer with 89.5 ml TBST. • 17. Anti-phosphotyrosine monoclonal antibody conjugated to horseradish peroxidase (PY99 HRP, Santa Cruz Biotech). • 18. 2,2′-Azinobis(3-ethylbenzthiazoline-6-sulfonic acid (ABTS, Moss, Cat. No. ABST). • 19. 10% SDS. Procedure: • 1. Coat Corning 96-well ELISA plates with 2 μg of polyEY peptide in sterile PBS as described in step 3 of Materials and Reagents. • 2. Remove unbound liquid from wells by inverting plate. Wash once with TBST. Pat the plate on a paper towel to remove excess liquid. • 3. Add 100 μl of 1% BSA in PBS to each well. Incubate, with shaking, for 1 hr. at room temperature. • 4. Repeat step 2. • 5. Soak wells with 50 mM HEPES (pH7.5) (150 μl/well). • 6. Dilute test compound with dH2O/4% DMSO to 4 times the desired final assay concentration in 96-well polypropylene plates. • 7. Add 25 μl diluted test compound to ELISA plate. In control wells, place 25 μl of dH2O/4% DMSO. • 8. Add 25 μl of 40 mM MnCl2 with 4×ATP (2 μM) to each well. • 9. Add 25 μl 0.5M EDTA to negative control wells. • 10. Dilute GST-Flk1 to 0.005 μg (5 ng)/well with KDB. • 11. Add 50 μl of diluted enzyme to each well. • 12. Incubate, with shaking, for 15 minutes at room temperature. • 13. […]

[2] = target: T2, PDGFR (Homo sapiens, UniProt P09619); assay: PDGFR bioassay (ELISA, in vitro kinase activity); type: biochemical; details: PDGFR-β expressing NIH 3T3 cell lysate; read-out: IC50 (μM) PDGF-R
T2 construct: SUGEN, Inc; host or cells: NIH 3T3 cell lysate; receptor captured on plate with monoclonal anti-PDGFR antibody 28D4C10
T2 sequence (P09619 33-1106, species assumed): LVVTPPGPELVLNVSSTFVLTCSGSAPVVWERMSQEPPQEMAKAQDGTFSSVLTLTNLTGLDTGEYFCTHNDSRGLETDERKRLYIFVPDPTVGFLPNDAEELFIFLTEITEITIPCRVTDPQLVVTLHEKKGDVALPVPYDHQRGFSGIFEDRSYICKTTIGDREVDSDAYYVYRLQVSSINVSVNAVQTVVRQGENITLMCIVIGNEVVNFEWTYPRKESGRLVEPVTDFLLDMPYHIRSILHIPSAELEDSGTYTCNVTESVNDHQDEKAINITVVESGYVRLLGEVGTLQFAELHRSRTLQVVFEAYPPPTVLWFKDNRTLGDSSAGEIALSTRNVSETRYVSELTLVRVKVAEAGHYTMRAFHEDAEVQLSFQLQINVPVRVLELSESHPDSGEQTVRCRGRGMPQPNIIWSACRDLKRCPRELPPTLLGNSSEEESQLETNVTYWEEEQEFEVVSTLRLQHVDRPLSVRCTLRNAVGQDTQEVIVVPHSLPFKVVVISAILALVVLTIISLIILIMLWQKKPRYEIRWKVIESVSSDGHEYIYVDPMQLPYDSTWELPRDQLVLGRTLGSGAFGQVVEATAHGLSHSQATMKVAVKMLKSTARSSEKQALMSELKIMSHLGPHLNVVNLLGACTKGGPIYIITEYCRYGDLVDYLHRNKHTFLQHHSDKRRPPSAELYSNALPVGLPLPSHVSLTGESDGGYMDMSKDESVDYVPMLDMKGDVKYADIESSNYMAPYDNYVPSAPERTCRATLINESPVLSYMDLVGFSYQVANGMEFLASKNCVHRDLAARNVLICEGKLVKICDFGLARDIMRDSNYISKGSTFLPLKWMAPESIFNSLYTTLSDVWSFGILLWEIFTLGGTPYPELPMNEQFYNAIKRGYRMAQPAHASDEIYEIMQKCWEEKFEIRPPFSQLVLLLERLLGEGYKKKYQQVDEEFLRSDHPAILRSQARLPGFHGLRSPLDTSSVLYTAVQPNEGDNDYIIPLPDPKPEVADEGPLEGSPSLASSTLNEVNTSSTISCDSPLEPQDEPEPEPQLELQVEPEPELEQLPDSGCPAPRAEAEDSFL

T1 sequence (P35918 784-1345 limits assumed): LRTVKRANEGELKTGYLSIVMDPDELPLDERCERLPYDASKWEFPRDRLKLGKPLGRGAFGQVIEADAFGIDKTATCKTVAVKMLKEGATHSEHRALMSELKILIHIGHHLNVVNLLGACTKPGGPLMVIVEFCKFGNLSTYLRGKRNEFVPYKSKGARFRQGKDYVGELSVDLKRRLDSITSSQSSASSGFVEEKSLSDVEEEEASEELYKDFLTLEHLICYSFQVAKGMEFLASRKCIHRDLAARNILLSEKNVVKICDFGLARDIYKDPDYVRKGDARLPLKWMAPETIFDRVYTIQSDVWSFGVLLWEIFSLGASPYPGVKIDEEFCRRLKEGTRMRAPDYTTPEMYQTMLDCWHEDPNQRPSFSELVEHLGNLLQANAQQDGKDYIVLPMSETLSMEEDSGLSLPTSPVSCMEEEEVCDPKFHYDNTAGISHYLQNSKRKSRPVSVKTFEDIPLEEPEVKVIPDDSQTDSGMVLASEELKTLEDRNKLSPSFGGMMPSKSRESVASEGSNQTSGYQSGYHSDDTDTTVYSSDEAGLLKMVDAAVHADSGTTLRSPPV

Structure (SMILES)	IC50 [1]	IC50 [2]
CN1CCN(Cc2ccc(C(=O)Nc3cccc(Nc4ncc(-c5ccsc5)cn4)c3)cc2)CC1 [Example 11, 4-[(4-methylpiperazin-1-yl)methyl]-N-{3-[(5-thien-3-ylpyrimidin-2-yl)amino]phenyl}benzamide]	0.73 µM	0.22 µM
CN1CCN(CC(=O)Nc2ccc(Nc3ncc(-c4ccsc4)cn3)cc2)CC1 [Example 23, 2-(4-methylpiperazin-1-yl)-N-{4-[(5-thien-3-ylpyrimidin-2-yl)amino]phenyl}acetamide]	5.1 µM	0.55 µM
Nc1ccc(C(=O)Nc2ccc(Nc3ncc(-c4ccsc4)cn3)cc2)cc1 [Example 4, 4-amino-N-{4-[(5-thien-3-ylpyrimidin-2-yl)amino]phenyl}benzamide]	> 20 µM	0.5 µM
Oc1ccc(Nc2ncc(-c3cccs3)cn2)cc1 [Example 15, 4-(5-thiophen-2-yl-pyrimidin-2-ylamino)-phenol]	4.61 µM	1.7 µM
c1cc(-c2cnc(Nc3ccc(N4CCOCC4)cc3)nc2)cs1 [Example 3, N-(4-morpholin-4-ylphenyl)-5-thien-3-ylpyrimidin-2-amine]	> 20 µM	0.15 µM
CC(=O)c1ccc(-c2cnc(Nc3cccc(N)c3)nc2)s1 [Example 19, 1-(5-{2-[(3-aminophenyl)amino]pyrimidin-5-yl}thien-2-yl)ethanone]	8.6 µM	2.4 µM
CC(=O)Nc1cccc(Nc2ncc(-c3cccs3)cn2)c1 [Example 14, N-{3-[(5-thien-2-ylpyrimidin-2-yl)amino]phenyl}acetamide]	4.17 µM	0.94 µM
O=C(O)c1cccc(Nc2ncc(-c3ccsc3)cn2)c1 [Example 7, 3-[(5-thien-3-ylpyrimidin-2-yl)amino]benzoic acid]	16.2 µM	7.39 µM
Oc1ccc(Nc2ncc(-c3ccsc3)cn2)cc1 [Example 1, 4-[(5-thien-3-ylpyrimidin-2-yl)amino]phenol]	4.5 µM	0.52 µM
CCN(CC)CC(=O)Nc1ccc(Nc2ncc(-c3ccsc3)cn2)cc1 [Example 27, N-(4-(5-(thiophen-3-yl)pyrimidin-2-ylamino)phenyl)-2-(diethylamino)acetamide]	6 µM	0.55 µM
O=C(CNCCN1CCOCC1)Nc1ccc(Nc2ncc(-c3ccsc3)cn2)cc1 [Example 25, 2-(2-morpholinoethylamino)-N-(4-(5-(thiophen-3-yl)pyrimidin-2-ylamino)phenyl)acetamide]	5.4 µM	0.47 µM
COc1ccc(Nc2ncc(-c3ccsc3)cn2)cc1 [Example 5, N-(4-methoxyphenyl)-5-thien-3-ylpyrimidin-2-amine]	> 20 µM	0.55 µM

Second part, the compound after the results:

IC50 [1]	IC50 [2]	Structure (SMILES)
4.7 µM	1 µM	O=C(Nc1ccc(Nc2ncc(-c3ccsc3)cn2)cc1)N1CCOCC1 [Example 34, N-{4-[(5-thien-3-ylpyrimidin-2-yl)amino]phenyl}morpholine-4-carboxamide]
2.3 µM	0.18 µM	O=C(CN1CCCC1CN1CCCC1)Nc1cccc(Nc2ncc(-c3ccsc3)cn2)c1 (stereo not drawn) [Example 47, N-(3-(5-(thiophen-3-yl)pyrimidin-2-ylamino)phenyl)-2-(2-((pyrrolidin-1-yl)methyl)pyrrolidin-1-yl)acetamide]
3.1 µM	0.23 µM	CCN(CC)CCNCC(=O)Nc1cccc(Nc2ncc(-c3ccsc3)cn2)c1 [Example 57, 2-(2-diethylamino-ethylamino)-N-[3-(5-thiophen-3-yl-pyrimidin-2-ylamino)-phenyl]-acetamide]
4.9 µM	0.57 µM	O=C(CN1CCC(O)CC1)Nc1ccc(Nc2ncc(-c3ccsc3)cn2)cc1 [Example 28, 2-(4-hydroxypiperidin-1-yl)-N-{4-[(5-thien-3-ylpyrimidin-2-yl)amino]phenyl}acetamide]
2.5 µM and 4 µM	0.08 µM and 0.43 µM	CN1CCN(CCNCC(=O)Nc2cccc(Nc3ncc(-c4ccsc4)cn3)c2)CC1 [Example 58, 2-[2-(4-methyl-piperazin-1-yl)-ethylamino]-N-[3-(5-thiophen-3-yl-pyrimidin-2-ylamino)-phenyl]-acetamide]
2 µM	0.12 µM	O=C(NCC(O)CN1CCOCC1)Nc1cccc(Nc2ncc(-c3ccsc3)cn2)c1 (stereo not drawn) [Example 51, 1-(2-hydroxy-3-morpholin-4-yl-propyl)-3-[3-(5-thiophen-3-yl-pyrimidin-2-ylamino)-phenyl]-urea]
6.2 µM	0.5 µM	O=C(Nc1ccc(Nc2ncc(-c3ccsc3)cn2)cc1)N1CCC(N2CCCC2)CC1 [Example 30, 4-pyrrolidin-1-yl-N-{4-[(5-thien-3-ylpyrimidin-2-yl)amino]phenyl}piperidine-1-carboxamide]
4 µM	0.43 µM	O=C(CN1CCCC1)Nc1ccc(Nc2ncc(-c3ccsc3)cn2)cc1 [Example 29, 2-pyrrolidin-1-yl-N-{4-[(5-thien-3-ylpyrimidin-2-yl)amino]phenyl}acetamide]
2.5 µM	0.94 µM	O=C(CN1CCOCC1)Nc1cccc(Nc2ncc(-c3ccsc3)cn2)c1 [Example 61, 2-morpholin-4-yl-N-[3-(5-thiophen-3-yl-pyrimidin-2-ylamino)-phenyl]-acetamide]
3.5 µM	0.21 µM	O=C(Nc1cccc(Nc2ncc(-c3ccsc3)cn2)c1)N1CCCC1CN1CCCC1 (stereo not drawn) [Example 48]
1.6 µM	0.36 µM	O=C(NCCN1CCS(=O)(=O)CC1)Nc1cccc(Nc2ncc(-c3ccsc3)cn2)c1 [Example 52, 1-[2-(1,1-dioxo-1λ^6-thiomorpholin-4-yl)ethyl]-3-[3-(5-thiophen-3-yl-pyrimidin-2-ylamino)-phenyl]-urea]
3.5 µM	0.66 µM	CC(=O)Nc1cccc(Nc2ncc(-c3ccsc3)cn2)c1 [Example 36, N-{3-[(5-thien-3-ylpyrimidin-2-yl)amino]phenyl}acetamide]
1.7 µM	0.16 µM	CCN(CC)CCNC(=O)Nc1cccc(Nc2ncc(-c3ccsc3)cn2)c1 [Example 50]
2.3 µM	0.22 µM	CN1CCN(CCNC(=O)Nc2cccc(Nc3ncc(-c4ccsc4)cn3)c2)CC1 [Example 53, 1-[2-(4-methyl-piperazin-1-yl)-ethyl]-3-[3-(5-thiophen-3-yl-pyrimidin-2-ylamino)-phenyl]-urea]
4.55 µM	0.66 µM	O=C(Nc1ccc(Nc2ncc(-c3ccsc3)cn2)cc1)N1CCCC1CN1CCCC1 (stereo not drawn) [Example 33, 2-(pyrrolidin-1-ylmethyl)-N-{4-[(5-thien-3-ylpyrimidin-2-yl)amino]phenyl}pyrrolidine-1-carboxamide]
